According to patent publication US20110136791A1, “COMBINATION OF A NICOTINIC RECEPTOR PARTIAL AGONIST AND OF AN ACETYLCHOLINESTERASE INHIBITOR, PHARMACEUTICAL COMPOSITION CONTAINING SAME AND USE THEREOF IN THE TREATMENT OF COGNITIVE DISORDERS” (priority 2008, published 2011):

Experiments:
[1] = system: CD1-strain mice injected ICV with Aβ25-35 peptide; test: Test of short-term visual episodic memory deficit induced by ICV injections of β-amyloid protein 25-35 in mice (object recognition); format: in vivo, mouse; conditions: Aβ25-35 mice; for Effect on short-term recall performance levels (in words): 0.1 mg/kg each, intraperitoneally; for Exploration time, familiar object (recalling session) / Exploration time, new object (recalling session) / Recognition index (new/(new + familiar)): intraperitoneally 60 min before each session, 1 hour forgetting period, each active 0.1 mg/kg (base equivalent); for Exploration time, familiar object (recalling session) / Exploration time, new object (recalling session): 5 min test
Procedure: 2. Test of short-term visual episodic memory deficit induced by intracerebroventricular (ICV) injections of β-amyloid protein 25-35 in mice
The Aβ25-35 peptide fragment contains the 11 amino acids necessary and sufficient for inducing neurological toxicity.
The Aβ25-35 amyloid peptide is dissolved in distilled water at a final concentration of 3 mg/ml. It is then incubated at 37° C. for 4 days in order to form aggregates of toxic peptide. The control animals receive the scrambled peptide, consisting of the same amino acids, but organized according to a random sequence.
The peptide is injected intracerebroventricularly into CD1-strain mice anaesthetized with isoflurane. A microsyringe fitted with a 28-gauge needle 3 mm long is used. The needle is inserted unilaterally, 1 mm to the right of the central line equidistant from each eye and at an equal distance between the axis of the eyes and the axis of the ears. 3 μl of the aggregated peptide are injected over a period of one minute. The mice are used for the behavioral tests between 6 and 14 days after the intracerebral injection.
1.) Accustomization phase: In this protocol, the mice are first subjected to a session of accustomization to the environmental context (light grey PVC chain of 52×52×40 cm, illumination at 6 Lux) for a period of 10 minutes. The time spent in active locomotion is measured using a timer. 2.) Learning phase: 24 hours later, two exactly identical objects (either metal triangles (5.5×3.3 cm), or a square red Lego brick (3.0×3.0×3.0 cm)) are placed in the experimental device. Each mouse is placed in the middle of the chamber, the nose against the wall opposite that where the objects/stimulus are located. The pairs of objects presented are alternated equitably in each of the groups of mice. The animals are left in the experimental chamber until they reach a time spent exploring the two objects equal to 10 seconds, out of a maximum period of 3 minutes. As soon as the 10 seconds of exploration are reached, the mouse is put back in its housing cage.
3.) Recalling session: The recalling session takes place after a forgetting period of 1 hour for all the groups. […] The mice are confronted with a pair of objects consisting of the object encountered during the learning phase and an unknown object. The mice are placed in the chamber in the same way as for the learning session.
This test lasts 5 minutes, during which the time spent exploring each of the 2 objects is measured.
(§1) For the learning and recalling sessions, the exploration of an object is counted if the animal orients its nose toward the object, inside a perimeter of 2 cm around said object, or if it touches it with its nose or its feet. If the rat moves around the object or sits on it, these behaviors are not considered to be exploratory.
(§2) The raw data are expressed in seconds.
The compounds to be tested are administered intraperitoneally, 60 minutes before each of the three sessions of the protocol.
Five experimental groups were formed, receiving, respectively:
During the recalling session, i.e. 1 hour after the learning session, the times spent exploring the two objects, expressed in seconds, are measured. • Similar exploration times with respect to the familiar object and to the new object reflect the fact that the familiar object has been forgotten, and therefore that there is complete abolition of the short-term recall performance levels. • Conversely, a longer exploration time for the new object compared with the familiar object reflects a good short-term memory recall performance level.

rats with no deficit = test: Test for spontaneous forgetting in rats with no deficit (object recognition test, visual episodic memory); format: in vivo; conditions: rat; for Exploration time, familiar object (recalling session) / Exploration time, new object (recalling session) / Recognition index (new/(new + familiar)): p.o. 60 min before each session, 24 h forgetting period, group 2: 0.1 mg/kg, group 3: rivastigmine 0.03 mg/kg, group 4: 0.01 + 0.03 mg/kg; for Exploration time, familiar object (recalling session) / Exploration time, new object (recalling session): 3 min test; for Discrimination between the familiar object and the new object during the recalling session (in words): p.o., inactive doses, 24 hours after the learning session
Procedure: 1. Test for Spontaneous Forgetting in Rats with No Deficit
1.) Accustomization phase: In this protocol, the animals are first subjected to a session of accustomization to the environmental context (a wooden chamber of 65×45×45 cm) for a period of 2 minutes. The time spent in active locomotion is measured using a timer. 2.) Learning phase: 24 hours later, two exactly identical objects (either metal triangles or pyramids made of Lego) are placed in the experimental device. Each rat is placed in the middle of the chamber, the nose against the wall opposite that where the objects/stimulus are located. The pairs of objects presented are alternated equitably in each of the groups of rats. The animals are left in the experimental chamber until they reach a period of exploration of the two objects equal to 20 seconds, out of a maximum period of 3 minutes. As soon as the 20 seconds of exploration are reached, the rat is put back in its housing cage. […] 3.) Recalling session: The recalling session takes place after a forgetting period of 24 h for all the groups. The rats are confronted with a pair of objects consisting of the object encountered during the learning phase and an unknown object. The rats are placed in the same way as for the learning session.
This test lasts 3 minutes, during which the time spent exploring each of the 2 objects is measured.
Conversely, if the animal has forgotten the familiar object, the times spent exploring the new object and the familiar object will be similar.
as §1, with “sessions, the exploring of an” for “sessions, the exploration of an”, “of 2 centimeters around said” for “of 2 cm around said”, “nose or with its feet.” for “nose or its feet.”
as §2
The test compounds are administered orally 60 minutes (rat study) before each of the three sessions of the protocol.
Four experimental groups are formed, said groups receiving, respectively:
During the recalling session, 24 hours after the learning session, the times spent exploring the two objects, expressed in seconds, and the recognition index (time spent exploring the new object/total time spent exploring the new and familiar objects) are measured. • Similar exploration times with respect to the familiar object and to the new object reflect the fact that the familiar object has been forgotten, and therefore that there is a visual episodic memory deficit.
Conversely, a longer exploration time for the new object than for the familiar object reflects significant recollection of the familiar object and therefore an improvement in visual episodic memory. • A relatively low recognition index reflects the fact that the familiar object has been forgotten, and therefore that there is a visual episodic memory deficit.
Conversely, a high recognition index reflects significant recollection of the familiar object, and therefore an improvement in visual episodic memory.
The above doses are expressed in base equivalent.

| Structure (SMILES) | Effect on short-term recall performance levels (in words) [1] | Exploration time, familiar object (recalling session) [1] [s] | Exploration time, new object (recalling session) [1] [s] | Recognition index (new/(new + familiar)) [1] | Exploration time, familiar object (recalling session) (rats with no deficit) [s] | Exploration time, new object (recalling session) (rats with no deficit) [s] | Recognition index (new/(new + familiar)) (rats with no deficit) | Discrimination between the familiar object and the new object during the recalling session (in words) (rats with no deficit) |
| --- | --- | --- | --- | --- | --- | --- | --- | --- |
| COc1cc2c(cc1OC)C(=O)C(CC1CCN(Cc3ccccc3)CC1)C2 (stereo not shown) [donepezil] | do not result in an improvement in performance levels | 4.60 ± 0.70 | 5.00 ± 0.80 | 0.52 ± 0.05 |  |  |  |  |
| CCN(C)C(=O)Oc1cccc([C@H](C)N(C)C)c1 [rivastigmine] |  |  |  |  | 10.10 ± 1.56 | 9.42 ± 1.86 | 0.48 ± 0.05 | no significant discrimination between the familiar object and the new object |
| O=C(O)/C=C/C(=O)O.O=C(Oc1ccc(Br)cc1)N1CCN2CCC1CC2 [4-bromophenyl 1,4-diazabicyclo[3.2.2]nonane-4-carboxylate (2E)-but-2-enedioate] | do not result in an improvement in performance levels | 4.30 ± 0.70 | 6.30 ± 0.60 | 0.60 ± 0.04 | 10.47 ± 0.84 | 11.10 ± 1.44 | 0.50 ± 0.04 | no significant discrimination between the familiar object and the new object |
